Assay results taken from US8673816B2, “Surfactants in agrochemical formulations” (Croda, Inc., priority 2009, dated 2014).

Tested on: oil seed rape plants (Brassica napus)
Assay: Greenhouse trial of surfactants as adjuvants for Glyphosate
Format: in vivo
Conditions: for % control: fresh weight vs untreated controls
Source text: A greenhouse trial was run to evaluate the effectiveness of the surfactants of the invention as adjuvants for Glyphosate in controlling the growth of (non-roundup ready) oil seed rape plants (Brassica napus). The trial used surfactant of the invention (SE1) and control adjuvant (FAE) at 3 rates, with 3 rates of glyphosate application, and controls including 3 glyphosate rates without surfactant, all grown in randomised blocks. 10 replications were used for each application, with 1 pot (7×7×8 cm) per plot and at least 4 plants per pot, in Levington M2 medium. The greenhouse conditions of temperature and humidity were recorded and watering was carried out by capillary matting. Additional lighting was provided over natural daylight. The glyphosate treatments were carried out using a pre-calibrated Mardrive greenhouse cabinet sprayer at a volume rate of about 200 I.ha^−1. […]
The type and application rate (Rate in g.ha^−1) of nominally 100% adjuvant, the application rate (Rate in g.ha^−1 active) of glyphosate, the glyphosate to adjuvant weight ratio (G:A) applied to the test plants and the visual assessment (%), and the % control are set out in Table AEA1 below.

[1] = 28 d, glyphosate 125 g.ha^−1, no adjuvant
[2] = 28 d, glyphosate 250 g.ha^−1, no adjuvant
[3] = 28 d, glyphosate 500 g.ha^−1, no adjuvant

O=C(O)CNCP(=O)(O)O [Glyphosate, N-phosphonomethyl glycine] was tested, and the “% damage” value (15 d, glyphosate 125 g.ha^−1, no adjuvant) was 0%, the “% damage” value (15 d, glyphosate 250 g.ha^−1, no adjuvant) was 1.5% and the “% damage” value (15 d, glyphosate 500 g.ha^−1, no adjuvant) was 11%. The “% damage” value (21 d, glyphosate 125 g.ha^−1, no adjuvant) was 5%, the “% damage” value (21 d, glyphosate 250 g.ha^−1, no adjuvant) was 5% and the “% damage” value (21 d, glyphosate 500 g.ha^−1, no adjuvant) was 33%. For the same compound, the “% control” value [1] was 0.2%, the “% control” value [2] was −6.4% and the “% control” value [3] was 49.5%. For the same compound, the “% damage” value [1] was 0%, the “% damage” value [2] was 0% and the “% damage” value [3] was 52%.
